Active and inactive are the calls of the source.
How the values were obtained:
[1] = target: T1, Replicative DNA helicase DnaB (Mycobacterium tuberculosis, UniProt P9WMR3); test: DnaB intein splicing inhibitors, dose response, biochemical, cell-free fluorescence (AID 449749); type: functional
T1 sequence (P9WMR3 whole entry): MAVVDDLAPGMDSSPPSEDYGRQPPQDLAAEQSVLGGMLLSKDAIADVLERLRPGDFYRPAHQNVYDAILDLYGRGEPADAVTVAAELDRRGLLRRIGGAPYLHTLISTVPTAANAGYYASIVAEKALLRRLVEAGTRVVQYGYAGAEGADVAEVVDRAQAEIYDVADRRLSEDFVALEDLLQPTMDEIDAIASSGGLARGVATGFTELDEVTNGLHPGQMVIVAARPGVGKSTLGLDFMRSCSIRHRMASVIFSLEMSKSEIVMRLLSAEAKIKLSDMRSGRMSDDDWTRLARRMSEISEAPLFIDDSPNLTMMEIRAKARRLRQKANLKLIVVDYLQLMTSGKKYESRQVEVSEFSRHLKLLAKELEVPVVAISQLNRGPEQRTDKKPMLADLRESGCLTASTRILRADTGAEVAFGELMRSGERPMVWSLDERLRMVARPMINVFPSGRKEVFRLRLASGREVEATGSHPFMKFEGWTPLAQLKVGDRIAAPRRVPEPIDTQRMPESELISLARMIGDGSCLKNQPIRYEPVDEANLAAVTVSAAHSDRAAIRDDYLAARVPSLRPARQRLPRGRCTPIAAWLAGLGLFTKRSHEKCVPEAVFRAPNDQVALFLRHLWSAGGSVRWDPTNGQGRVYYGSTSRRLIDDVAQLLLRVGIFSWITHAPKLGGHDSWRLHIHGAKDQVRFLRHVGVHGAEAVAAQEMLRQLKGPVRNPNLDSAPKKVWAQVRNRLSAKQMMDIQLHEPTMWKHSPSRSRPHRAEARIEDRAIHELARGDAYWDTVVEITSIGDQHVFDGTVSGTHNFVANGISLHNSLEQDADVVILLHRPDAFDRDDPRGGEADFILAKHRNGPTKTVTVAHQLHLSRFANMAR

Protein RecA = target: T2, Protein RecA (Mycobacterium tuberculosis, UniProt P9WHJ3); test: Fluorescence Cell-Free Homogeneous Dose Retest to Identify Inhibitors of RecA-Intein Splicing Activity. [Related pubchem assays (depositor defined):AID2097, AID2223, AID489010, AID492950]; type: functional
T2 sequence (P9WHJ3 whole entry): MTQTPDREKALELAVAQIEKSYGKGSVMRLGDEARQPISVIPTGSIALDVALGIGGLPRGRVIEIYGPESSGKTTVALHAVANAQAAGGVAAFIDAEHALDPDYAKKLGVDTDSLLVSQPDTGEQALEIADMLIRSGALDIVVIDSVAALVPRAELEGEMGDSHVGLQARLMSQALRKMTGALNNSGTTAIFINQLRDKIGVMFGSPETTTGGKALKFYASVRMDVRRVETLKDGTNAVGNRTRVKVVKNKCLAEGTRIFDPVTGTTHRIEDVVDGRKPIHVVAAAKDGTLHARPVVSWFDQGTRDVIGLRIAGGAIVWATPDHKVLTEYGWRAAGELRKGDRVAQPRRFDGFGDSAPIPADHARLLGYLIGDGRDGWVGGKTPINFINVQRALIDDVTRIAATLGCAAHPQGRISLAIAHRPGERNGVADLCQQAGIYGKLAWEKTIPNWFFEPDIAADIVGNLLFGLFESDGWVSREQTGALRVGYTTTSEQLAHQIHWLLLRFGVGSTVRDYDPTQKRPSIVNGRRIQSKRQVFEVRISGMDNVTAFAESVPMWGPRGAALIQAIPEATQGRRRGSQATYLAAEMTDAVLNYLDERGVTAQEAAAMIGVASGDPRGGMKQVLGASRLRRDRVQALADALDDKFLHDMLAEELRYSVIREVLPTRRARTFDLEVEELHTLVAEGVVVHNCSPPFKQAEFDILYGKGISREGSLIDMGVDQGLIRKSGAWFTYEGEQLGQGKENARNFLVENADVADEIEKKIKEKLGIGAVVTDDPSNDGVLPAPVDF

[2] = growth suppression of PTEN-null colon cells, dose response, cell-based, HCT116 PTEN knockout (AID 1047); type: functional;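 also: HCT116 colon tumor cells with PTEN knocked out; cells exposed to compound for 60 hours before readout; potency for loss of cell viability measured by luminescence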
[3] = growth suppression of beta-catenin-knockout colon cells, dose response, cell-based, HCT116, human colon tumor (AID 1045); type: functional;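 also: HCT116 colon tumor cells with beta catenin knocked out; cells exposed to compound for 60 hours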
Cytochrome P450 2D6 = Cytochrome P450 2D6 (Homo sapiens, UniProt P10635);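 also: CYP2D6 member of a cytochrome P450 panel assay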
[4] = Luminescence Cell-Based Dose Confirmation HTS to Identify Activators of 5'UTR Stem-Loop Driven Alpha-Synuclein mRNA Translation in H4 Neuroglioblastoma Cells. [Related pubchem assays: 1829 (Project Summary), 1814 (Primary HTS)]; type: functional
[5] = Luminescence Cell-Based Dose Response HTS to Identify Activators of Luciferase Translation or Activity in H4 […] Cells. [Related pubchem assays: 1829 (Project Summary), 1814 (Primary HTS)]; type: functional
H4 = test: Luminescence Cell-Based Dose Response HTS to Identify Activators of 5'UTR Stem-Loop Driven Prion Protein mRNA Translation in H4 Neuroglioblastoma Cells. [Related pubchem assays: 1829 (Project Summary), 1814 (Primary HTS)]; type: functional; settings: Homo sapiens
Protein skinhead-1 = target: T3, Protein skinhead-1 (Caenorhabditis elegans, UniProt P34707); type: functional
T3 sequence (P34707 whole entry): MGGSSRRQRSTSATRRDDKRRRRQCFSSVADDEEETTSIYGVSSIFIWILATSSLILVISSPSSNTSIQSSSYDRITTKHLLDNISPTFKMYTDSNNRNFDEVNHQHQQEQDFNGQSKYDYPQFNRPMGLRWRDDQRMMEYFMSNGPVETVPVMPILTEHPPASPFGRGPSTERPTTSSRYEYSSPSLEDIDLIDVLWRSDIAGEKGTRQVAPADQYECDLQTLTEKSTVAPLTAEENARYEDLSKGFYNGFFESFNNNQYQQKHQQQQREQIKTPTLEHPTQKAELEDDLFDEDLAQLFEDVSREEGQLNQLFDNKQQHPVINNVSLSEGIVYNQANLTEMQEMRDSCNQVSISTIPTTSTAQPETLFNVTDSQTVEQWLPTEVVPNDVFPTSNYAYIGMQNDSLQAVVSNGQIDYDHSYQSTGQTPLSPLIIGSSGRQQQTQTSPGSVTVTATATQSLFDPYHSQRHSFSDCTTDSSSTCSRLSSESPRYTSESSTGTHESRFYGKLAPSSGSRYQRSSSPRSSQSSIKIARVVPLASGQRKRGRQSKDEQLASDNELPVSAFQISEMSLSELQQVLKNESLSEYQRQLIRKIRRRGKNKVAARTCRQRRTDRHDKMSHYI

Cytochrome P450 2C9 [6] = target: T4, Cytochrome P450 2C9 (Homo sapiens, UniProt P11712)
Cytochrome P450 3A4 = Cytochrome P450 3A4 (Homo sapiens, UniProt P08684);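 also: CYP3A4 tested as one member of a cytochrome P450 panel screen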
[7] = tested on: Streptococcus sp. 'group A'; test: growth inhibition of control SK(-) GAS strain, dose response, counter-screen for streptokinase expression inhibitor project, luminescence, kanamycin, BacTiterGlo, confirmation (AID 1900); type: functional, organism-based
Streptococcus = test: Group A Streptococcus viability loss, dose response, counter-screen for streptokinase expression inhibitor project, luminescence, BacTiterGlo (AID 1915); type: functional, organism-based;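 also: potency for reduction of bacterial viability or growth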
Cytochrome P450 2C19 = Cytochrome P450 2C19 (Homo sapiens, UniProt P33261); test: Cytochrome panel assay with activity outcomes. Panel member name: p450-cyp2c19 Compounds with AC50 equal or less than 10 uM are considered active; type: functional; settings: read-out: AC50
Cytochrome P450 1A2 = target: T5, Cytochrome P450 1A2 (Homo sapiens, UniProt P05177);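 also: PubChem cytochrome P450 panel assay, CYP1A2 panel member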
T5 sequence (P05177 whole entry): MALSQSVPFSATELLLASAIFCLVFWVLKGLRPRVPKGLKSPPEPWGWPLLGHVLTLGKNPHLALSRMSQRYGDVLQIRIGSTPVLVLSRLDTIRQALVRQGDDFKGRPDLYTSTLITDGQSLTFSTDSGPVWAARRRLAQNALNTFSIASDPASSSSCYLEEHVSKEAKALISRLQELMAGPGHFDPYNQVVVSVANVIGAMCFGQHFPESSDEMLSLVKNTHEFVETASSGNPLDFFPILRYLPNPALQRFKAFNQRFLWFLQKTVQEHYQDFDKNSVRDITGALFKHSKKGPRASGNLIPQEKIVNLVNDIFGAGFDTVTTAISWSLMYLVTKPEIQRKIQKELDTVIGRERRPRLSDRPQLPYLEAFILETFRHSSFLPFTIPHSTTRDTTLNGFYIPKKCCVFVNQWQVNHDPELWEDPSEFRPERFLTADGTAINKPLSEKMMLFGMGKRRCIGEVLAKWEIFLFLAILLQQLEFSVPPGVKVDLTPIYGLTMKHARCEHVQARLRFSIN

Cytochrome P450 2C9 [8] = target: T4, Cytochrome P450 2C9; remark: listed apart in the source
P388 = test: cells; type: functional; settings: Mus musculus
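For GI50 in this document: compound exposure lasted 48 hours before growth was measured.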

Sequence of Cytochrome P450 2D6 (P10635 whole entry): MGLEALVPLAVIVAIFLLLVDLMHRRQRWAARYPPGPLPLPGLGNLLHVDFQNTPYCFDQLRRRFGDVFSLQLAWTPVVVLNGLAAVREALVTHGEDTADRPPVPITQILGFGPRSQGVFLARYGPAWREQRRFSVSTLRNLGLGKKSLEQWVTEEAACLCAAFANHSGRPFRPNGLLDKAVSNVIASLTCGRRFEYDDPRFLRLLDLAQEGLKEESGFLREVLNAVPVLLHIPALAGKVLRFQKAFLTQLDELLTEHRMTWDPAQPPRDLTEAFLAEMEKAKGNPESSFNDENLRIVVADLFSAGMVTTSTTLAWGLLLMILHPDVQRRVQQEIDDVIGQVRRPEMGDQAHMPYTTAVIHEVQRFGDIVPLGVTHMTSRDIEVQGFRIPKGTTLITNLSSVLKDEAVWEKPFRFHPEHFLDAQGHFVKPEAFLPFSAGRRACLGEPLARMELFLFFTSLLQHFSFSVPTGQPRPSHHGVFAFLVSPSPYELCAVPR
T4 sequence (P11712 whole entry): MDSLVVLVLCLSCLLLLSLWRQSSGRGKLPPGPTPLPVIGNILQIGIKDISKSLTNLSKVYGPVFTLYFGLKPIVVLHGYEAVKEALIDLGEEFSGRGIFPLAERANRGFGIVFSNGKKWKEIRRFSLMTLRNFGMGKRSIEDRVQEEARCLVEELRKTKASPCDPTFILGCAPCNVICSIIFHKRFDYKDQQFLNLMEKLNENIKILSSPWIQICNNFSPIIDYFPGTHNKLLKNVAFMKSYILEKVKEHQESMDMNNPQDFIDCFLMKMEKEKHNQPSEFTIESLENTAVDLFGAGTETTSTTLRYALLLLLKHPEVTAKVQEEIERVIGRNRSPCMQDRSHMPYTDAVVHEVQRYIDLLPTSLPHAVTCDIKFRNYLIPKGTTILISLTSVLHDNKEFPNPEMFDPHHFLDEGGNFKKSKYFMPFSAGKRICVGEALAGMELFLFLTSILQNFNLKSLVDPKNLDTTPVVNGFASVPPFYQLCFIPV
Sequence of Cytochrome P450 3A4 (P08684 whole entry): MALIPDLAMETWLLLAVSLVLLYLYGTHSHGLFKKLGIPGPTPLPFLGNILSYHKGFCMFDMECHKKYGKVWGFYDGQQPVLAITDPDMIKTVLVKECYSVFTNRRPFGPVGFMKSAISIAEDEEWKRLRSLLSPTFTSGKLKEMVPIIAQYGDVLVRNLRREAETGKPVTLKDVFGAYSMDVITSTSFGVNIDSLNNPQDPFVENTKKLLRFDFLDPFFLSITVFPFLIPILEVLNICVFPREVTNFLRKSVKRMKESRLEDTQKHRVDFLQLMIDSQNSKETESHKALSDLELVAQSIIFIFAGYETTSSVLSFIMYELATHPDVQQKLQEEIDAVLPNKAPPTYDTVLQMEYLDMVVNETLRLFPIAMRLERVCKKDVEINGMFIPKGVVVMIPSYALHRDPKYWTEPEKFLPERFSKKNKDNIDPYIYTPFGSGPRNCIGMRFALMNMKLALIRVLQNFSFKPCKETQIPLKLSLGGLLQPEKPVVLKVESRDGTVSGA
Sequence of Cytochrome P450 2C19 (P33261 whole entry): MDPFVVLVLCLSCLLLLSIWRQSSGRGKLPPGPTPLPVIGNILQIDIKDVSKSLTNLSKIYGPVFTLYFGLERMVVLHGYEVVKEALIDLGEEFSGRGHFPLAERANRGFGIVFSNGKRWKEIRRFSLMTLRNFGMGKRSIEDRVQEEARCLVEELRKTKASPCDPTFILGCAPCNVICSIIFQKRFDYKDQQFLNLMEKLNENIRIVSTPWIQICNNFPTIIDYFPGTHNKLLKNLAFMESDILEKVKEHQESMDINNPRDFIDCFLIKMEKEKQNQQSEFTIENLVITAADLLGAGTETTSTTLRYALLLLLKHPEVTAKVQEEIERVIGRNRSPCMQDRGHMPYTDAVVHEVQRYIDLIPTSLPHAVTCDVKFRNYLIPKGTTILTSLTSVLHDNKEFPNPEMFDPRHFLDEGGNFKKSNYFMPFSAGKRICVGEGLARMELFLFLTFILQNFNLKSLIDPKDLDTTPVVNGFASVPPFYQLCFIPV

## CCOC(=O)CC1=NN(c2ccccc2)C(=O)C1
[1]
  AC50: 13.1 µM (active)
Protein RecA
  EC50: 10.1 µM (active)

## COc1cc2cc(/C=C/C(=O)c3ccco3)c(Cl)nc2cc1OC
[2]
  EC50: 11.6 µM (active)
[3]
  EC50: 10.1 µM (active)

## COC(=O)[C@@]1(Cc2ccc(F)cc2)[C@H]2c3cc(C(=O)N(C)C)n(Cc4ccc(C)c(F)c4F)c3C[C@H]2CN1C(=O)c1ccccc1
Cytochrome P450 2D6
  AC50: 20 µM (inconclusive)

## COC(=O)c1cc([N+](=O)[O-])c(-n2ccnc2)c([N+](=O)[O-])c1
[1]
  AC50: 6.54 µM (active)
Protein RecA
  EC50: 4.53 µM (active)

## CCOC(=O)c1cc2cc3ccccc3cc2[nH]1
[4]
  EC50: 0.164 µM (active)
[5]
  EC50: 0.191 µM (active)
H4
  EC50: > 120 µM (not active)
Protein RecA
  EC50: > 380 µM (inactive)
Protein skinhead-1
  IC50: > 100 µM (inactive)

## CCOC(=O)/C(=C/c1ccc(N2CCC(c3ccccc3)=N2)cc1)C(C)=O
[2]
  EC50: 0.014 µM (active)
[3]
  EC50: 26.7 µM (active)

## O=C(Cn1cc(C(=O)c2ccco2)c2ccccc21)NCc1ccco1
Cytochrome P450 2D6
  AC50: 22.4 µM (inconclusive)

## COc1cc2c(cc1OC)-c1cc3ccc(OC)c(OC)c3c[n+]1CC2 [PALMITINE]
Cytochrome P450 2D6
  AC50: 12.6 µM (inconclusive)

## CCOC(=O)/C=c1\s/c(=C\c2ccc(C(F)(F)F)cc2)c(=O)n1CC(=O)NCc1ccco1
[2]
  EC50: 35.9 µM (active)
[3]
  EC50: 45.9 µM (active)

## COc1cccc(/C=N/NC(=O)CNC(=O)C2COc3ccccc3O2)c1O (stereo unspecified)
[2]
  EC50: 13.1 µM (active)
[3]
  EC50: 10.9 µM (active)

## O=c1c(-c2cccs2)nc2cncnc2n1Cc1ccc(F)cc1
Cytochrome P450 2D6
  AC50: 0.631 µM (inconclusive)
Cytochrome P450 2C9 [6]
  AC50: 1 µM (inconclusive)

## CC(C)c1n[nH]c2c1C(c1cccs1)C(C#N)=C(N)O2 (stereo unspecified)
[1]
  AC50: 10.8 µM (active)
Protein RecA
  EC50: 4.29 µM (active)

## CN(C)C(=O)c1ccc(-c2nc(Nc3ccc(F)cc3)c3ccccc3n2)cc1
Cytochrome P450 2D6
  AC50: 25.1 µM (inconclusive)
Cytochrome P450 3A4
  AC50: 20 µM (inconclusive)

## CCCCN1C(=O)C(O)(CC(=O)c2ccco2)c2cc(Br)ccc21 (stereo unspecified)
[2]
  EC50: 7.11 µM (active)
[3]
  EC50: 5.01 µM (active)

## O=C(N/N=C/c1c[nH]c2ccccc12)c1cc(-c2ccc(-c3ccccc3)cc2)[nH]n1
[4]
  EC50: 0.219 µM (active)
[5]
  EC50: 0.166 µM (active)
[7]
  EC50: 3.46 µM (active)
H4
  EC50: > 120 µM (not active)
[2]
  EC50: 5.81 µM (active)
[3]
  EC50: 8.8 µM (active)
Streptococcus
  EC50: 1.56 µM (active)
Cytochrome P450 2C19
  AC50: 6.31 µM (inconclusive)
Cytochrome P450 1A2
  AC50: 3.16 µM (inconclusive)
Cytochrome P450 2C9 [8]
  AC50: inconclusive

## COc1ccc2c3c(c4cc(OC)c(OC)cc4c2c1)C[C@H]1CCCCN1C3 [CRYPTOPLEURINE]
P388
  GI50: 0.005 µM (active)

## COCCNc1ncnc2ccc(-c3ccccc3OC)cc12
Cytochrome P450 2D6
  AC50: 39.8 µM (inconclusive)

## COc1cc(C2NC(=O)C(C#N)=C(Nc3cccc(C)c3)S2)ccc1O (stereo unspecified)
[1]
  AC50: 42 µM (active)
Protein RecA
  EC50: 20 µM (active)

## O=C(c1ccc([N+](=O)[O-])cc1)[C@@H](Br)[C@@H](Br)c1ccnc2ccccc12
Cytochrome P450 2D6
  AC50: 3.98 µM (inconclusive)

## CCn1c(COc2ccc(OC)cc2)nc2ccccc21
Cytochrome P450 2D6
  AC50: 17.8 µM (inconclusive)
Cytochrome P450 2C9 [8]
  AC50: inconclusive

## CCOC(=O)CSC1=C(C#N)C(c2sccc2C)C(C(C)=O)=C(C)N1 (stereo unspecified)
Cytochrome P450 2D6
  AC50: 35.5 µM (inconclusive)

## CCOc1cc(/C=C2/C(=N)N3OC(C)=CC3=NC2=O)ccc1O
[1]
  AC50: 95.1 µM (active)
Protein RecA
  EC50: 26.9 µM (active)

## COc1cc(C2(c3ccc(O)c(OC)c3)C(=O)Nc3c(Br)cc(Br)cc32)ccc1O
[1]
  AC50: 3.13 µM (active)
Protein RecA
  EC50: 4.77 µM (active)

## C[N+](C)(C)C1=NNC2=Nc3ccccc3SC2=C1
Cytochrome P450 2D6
  AC50: 3.98 µM (inconclusive)
